Experiments:
Assay in all cases: relative viability (nuclei count vs DMSO), 5 days (fraction); higher = more cells survive
AZ505 + OSI-027 = compound: C1CCC(CC1)N(CCNCCC2=C3C(=C(C=C2)O)NC(=O)CO3)C(=O)CCNCCC4=CC(=C(C=C4)Cl)Cl [AZ505] + COc1cccc2cc(-c3nc([C@H]4CC[C@H](C(=O)O)CC4)n4ncnc(N)c34)[nH]c12 [OSI-027] (partner 0.5 µM)
Outline: (§1)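 The day after seeding in 1536-well plates, lung cancer cell lines were treated by pin tool with a single drug, or with a fixed anchor-drug dose together with five library-drug doses (not always all listed) in √10 steps. After 5 days, a combined fix-and-stain solution (final 0.05% Triton X-100, 1% formaldehyde, 1 ug/ml Hoechst) was added. Nuclei counted on 4× images gave relative viability as treated counts over vehicle counts, reported as the median of duplicate plates.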

AZ505 + Phenformin = compound: C1CCC(CC1)N(CCNCCC2=C3C(=C(C=C2)O)NC(=O)CO3)C(=O)CCNCCC4=CC(=C(C=C4)Cl)Cl [AZ505] + N=C(N)NC(=N)NCCc1ccccc1 [Phenformin] (partner 250 µM)
Outline: as §1

AZ505 + Olaparib = compound: C1CCC(CC1)N(CCNCCC2=C3C(=C(C=C2)O)NC(=O)CO3)C(=O)CCNCCC4=CC(=C(C=C4)Cl)Cl [AZ505] + O=C(c1cc(Cc2n[nH]c(=O)c3ccccc23)ccc1F)N1CCN(C(=O)C2CC2)CC1 [Olaparib] (partner 8 µM)
Outline: as §1

Dactolisib + Luminespib = compound: Cn1c(=O)n(-c2ccc(C(C)(C)C#N)cc2)c2c3cc(-c4cnc5ccccc5c4)ccc3ncc21 [Dactolisib] + CCNC(=O)c1noc(-c2cc(C(C)C)c(O)cc2O)c1-c1ccc(CN2CCOCC2)cc1 [Luminespib] (partner 0.01 µM)
Outline: as §1

UMC-11
relative viability (AZ505 + OSI-027; first compound 0.08 µM): 0.413
relative viability (AZ505 + OSI-027; first compound 0.253 µM): 0.53
relative viability (AZ505 + OSI-027; first compound 0.8 µM): 0.452
relative viability (AZ505 + OSI-027; first compound 2.53 µM): 0.476
relative viability (AZ505 + OSI-027; first compound 8 µM): 0.492
relative viability (AZ505 + Phenformin; first compound 0.08 µM): 0.305
relative viability (AZ505 + Phenformin; first compound 0.253 µM): 0.323
relative viability (AZ505 + Phenformin; first compound 0.8 µM): 0.328
relative viability (AZ505 + Phenformin; first compound 2.53 µM): 0.328
relative viability (AZ505 + Phenformin; first compound 8 µM): 0.325
relative viability (AZ505 + Olaparib; first compound 0.08 µM): 0.366
relative viability (AZ505 + Olaparib; first compound 0.253 µM): 0.372
relative viability (AZ505 + Olaparib; first compound 0.8 µM): 0.363
relative viability (AZ505 + Olaparib; first compound 2.53 µM): 0.383
relative viability (AZ505 + Olaparib; first compound 8 µM): 0.381
relative viability (Dactolisib + Luminespib; first compound 0.002 µM): 1.1
relative viability (Dactolisib + Luminespib; first compound 0.006325 µM): 0.781
relative viability (Dactolisib + Luminespib; first compound 0.02 µM): 0.737
relative viability (Dactolisib + Luminespib; first compound 0.06325 µM): 0.261
relative viability (Dactolisib + Luminespib; first compound 0.2 µM): 0.224

Reference: the supplement of paper PMC10307832
